Patent publication US20100010022A1, “CANCER TREATMENT METHOD” (SmithKline Beecham Corporation, priority 2004, published 2010)
Marks after values point to notes of the source that are not given here.

Tests used:
[1] = test system: NCI-H322 (non-small cell lung carcinoma); assay: NCI H322 subcutaneous human xenograft mouse model, tumor growth; format: in vivo, SCID mice; details: for tumor growth inhibition: monotherapy, FIG. 2, range over doses
Protocol: NCI H322 cells obtained from the ATCC and were cultured in RPMI 1640+10% Fetal bovine serum, Sodium pyruvate and L-Glutamine at […] in a 95/5% air/CO2 atmosphere. Cells were harvested following trypsin digestion and brought to a density of 2×10^6 cells/200 μl in PBS. Tumors were initiated by injection of the cell suspension subcutaneously in the axillary region. In addition some experiments were performed following serial transplantation of tumor fragments in SCID mice. Tumors were initiated by injection of tumor fragments subcutaneously in the axillary region.
(§1) For the xenograft models used here, solid tumors were measured by electronic caliper measurement through the skin. Measurements were typically made twice weekly.
Drugs were administered by P.O. route. […] These studies were performed under IACUC #468 and 603.
Data are presented as percent inhibition of tumor growth, as compared to vehicle.

[2] = test system: BT474 (human breast tumor line); assay: BT474 subcutaneous human xenograft mouse model, tumor growth; format: in vivo, SCID mice; details: for tumor growth inhibition: monotherapy, FIG. 1, range over doses
Protocol: The BT474 xenografts were maintained by serial transplantation of tumor fragments in SCID mice. Tumors are initiated by injection of tumor fragments subcutaneously in the axillary region.
as §1
Drugs were administered by P.O. route. […] These studies were performed under IACUC #468 and 603. The results are illustrated in Tables 1-4, and FIGS. 1 and 2. FIGS. 1 and 2 are the graphical representation of the data contained in Tables 3 and 4, respectively.
The column labeled “Exp. 1” contains the results presented in FIG. 1 for the last data point on the graph. The column labeled “Exp. 2” contains analogous results from an independent experiment. Data are presented as percent inhibition of tumor growth, as compared to vehicle.

[3] = Exp. 1, Example 1 30 mg/kg P.O. once daily
[4] = Exp. 1, Example 1 100 mg/kg P.O. once daily
[5] = Exp. 2, Example 1 30 mg/kg P.O. once daily
[6] = Exp. 2, Example 1 100 mg/kg P.O. once daily
[7] = Exp. 1, Example 3 60 mg/kg P.O. once daily

In the case of Cc1ccc(Nc2nccc(N(C)c3ccc4c(C)n(C)nc4c3)n2)cc1S(N)(=O)=O [Example 1, 5-({4-[(2,3-dimethyl-2H-indazol-6-yl)(methyl)amino]pyrimidin-2-yl}amino)-2-methylbenzenesulfonamide], the Mean tumor volume ([1]; Day 29, Ex. 1 30 mg/kg) is reported as 182 mm^3, the Mean tumor volume ([1]; Day 29, Ex. 1 100 mg/kg) is reported as 166 mm^3 and the Mean tumor volume ([1]; Day 34, Ex. 1 30 mg/kg) is reported as 351 mm^3. For the same compound, the Mean tumor volume ([1]; Day 34, Ex. 1 100 mg/kg) was 268 mm^3, the Mean tumor volume ([1]; Day 37, Ex. 1 30 mg/kg) was 358 mm^3 and the Mean tumor volume ([1]; Day 37, Ex. 1 100 mg/kg) was 266 mm^3. The Mean tumor volume ([1]; Day 41, Ex. 1 30 mg/kg) was 329 mm^3, the Mean tumor volume ([1]; Day 41, Ex. 1 100 mg/kg) was 316 mm^3 and the Mean tumor volume ([1]; Day 44, Ex. 1 30 mg/kg) was 309 mm^3. It also gave a Mean tumor volume ([1]; Day 44, Ex. 1 100 mg/kg) of 312 mm^3, a Mean tumor volume ([1]; Day 48, Ex. 1 30 mg/kg) of 377 mm^3 and a Mean tumor volume ([1]; Day 48, Ex. 1 100 mg/kg) of 297 mm^3. The Mean tumor volume ([1]; Day 51, Ex. 1 30 mg/kg) was 389 mm^3, the Mean tumor volume ([1]; Day 51, Ex. 1 100 mg/kg) was 313 mm^3 and the “percent inhibition of tumor growth, as compared to vehicle” value (from here on “percent inhibition of tumor growth”) [1, 3] was 34%. The “percent inhibition of tumor growth” value [1, 4] was 56* %, the “percent inhibition of tumor growth” value [1, 5] was 20% and the “percent inhibition of tumor growth” value [1, 6] was 62%. For the same compound, the “percent inhibition of tumor growth” value ([1]; Exp. 3, Example 1 30 mg/kg P.O. once daily) was 86* %, the “percent inhibition of tumor growth” value ([1]; Exp. 3, Example 1 100 mg/kg P.O. once daily) was 88* % and the tumor growth inhibition [1] was 86-88%. The Mean tumor volume ([2]; Day 36, Ex. 1 30 mg/kg) was 281 mm^3, the Mean tumor volume ([2]; Day 36, Ex. 1 100 mg/kg) was 293 mm^3 and the Mean tumor volume ([2]; Day 38, Ex. 1 30 mg/kg) was 406 mm^3. It also gave a Mean tumor volume ([2]; Day 38, Ex. 1 100 mg/kg) of 417 mm^3, a Mean tumor volume ([2]; Day 41, Ex. 1 30 mg/kg) of 481 mm^3 and a Mean tumor volume ([2]; Day 41, Ex. 1 100 mg/kg) of 453 mm^3. The Mean tumor volume ([2]; Day 44, Ex. 1 30 mg/kg) was 601 mm^3, the Mean tumor volume ([2]; Day 44, Ex. 1 100 mg/kg) was 519 mm^3 and the Mean tumor volume ([2]; Day 49, Ex. 1 30 mg/kg) was 722 mm^3. The Mean tumor volume ([2]; Day 49, Ex. 1 100 mg/kg) was 519 mm^3, the Mean tumor volume ([2]; Day 52, Ex. 1 30 mg/kg) was 777 mm^3 and the Mean tumor volume ([2]; Day 52, Ex. 1 100 mg/kg) was 515 mm^3. The Mean tumor volume ([2]; Day 55, Ex. 1 30 mg/kg) was 860 mm^3, the Mean tumor volume ([2]; Day 55, Ex. 1 100 mg/kg) was 496 mm^3 and the Mean tumor volume ([2]; Day 57, Ex. 1 30 mg/kg) was 954 mm^3. For the same compound, the Mean tumor volume ([2]; Day 57, Ex. 1 100 mg/kg) was 513 mm^3, the “percent inhibition of tumor growth” value [2, 3] was 16% and the “percent inhibition of tumor growth” value [2, 4] was 78* %. The “percent inhibition of tumor growth” value [2, 5] was 47* %, the “percent inhibition of tumor growth” value [2, 6] was 64* % and the tumor growth inhibition [2] was 16-78%.

Work on CS(=O)(=O)CCNCc1ccc(-c2ccc3ncnc(Nc4ccc(OCc5cccc(F)c5)c(Cl)c4)c3c2)o1 [Example 3, N-{3-Chloro-4-[(3-fluorobenzyl)oxy]phenyl}-6-[5-({[2-(methanesulphonyl)ethyl]amino}methyl)-2-furyl]-4-quinazolinamine] yielded a Mean tumor volume ([1]; Day 29, Ex. 3 20 mg/kg) of 167 mm^3, a Mean tumor volume ([1]; Day 29, Ex. 3 60 mg/kg) of 175 mm^3 and a Mean tumor volume ([1]; Day 34, Ex. 3 20 mg/kg) of 288 mm^3. The Mean tumor volume ([1]; Day 34, Ex. 3 60 mg/kg) was 252 mm^3, the Mean tumor volume ([1]; Day 37, Ex. 3 20 mg/kg) was 403 mm^3 and the Mean tumor volume ([1]; Day 37, Ex. 3 60 mg/kg) was 313 mm^3. The Mean tumor volume ([1]; Day 41, Ex. 3 20 mg/kg) was 511 mm^3, the Mean tumor volume ([1]; Day 41, Ex. 3 60 mg/kg) was 400 mm^3 and the Mean tumor volume ([1]; Day 44, Ex. 3 20 mg/kg) was 616 mm^3. The Mean tumor volume ([1]; Day 48, Ex. 3 20 mg/kg) was 837 mm^3, the Mean tumor volume ([1]; Day 48, Ex. 3 60 mg/kg) was 577 mm^3 and the Mean tumor volume ([1]; Day 51, Ex. 3 20 mg/kg) was 871 mm^3. The Mean tumor volume ([1]; Day 51, Ex. 3 60 mg/kg) was 649 mm^3, the “percent inhibition of tumor growth” value [1, 7] was 75* % and the “percent inhibition of tumor growth” value ([1]; Exp. 2, Example 3 20 mg/kg P.O. once daily) was 31%. For the same compound, the “percent inhibition of tumor growth” value ([1]; Exp. 3, Example 3 20 mg/kg P.O. once daily) was 28%, the “percent inhibition of tumor growth” value ([1]; Exp. 3, Example 3 60 mg/kg P.O. once daily) was 54% and the tumor growth inhibition [1] was 28-54%. The Mean tumor volume ([2]; Day 36, Ex. 3 60 mg/kg) was 235 mm^3, the Mean tumor volume ([2]; Day 36, Ex. 3 200 mg/kg) was 219 mm^3 and the Mean tumor volume ([2]; Day 38, Ex. 3 60 mg/kg) was 328 mm^3. For the same compound, the Mean tumor volume ([2]; Day 38, Ex. 3 200 mg/kg) was 262 mm^3, the Mean tumor volume ([2]; Day 41, Ex. 3 60 mg/kg) was 367 mm^3 and the Mean tumor volume ([2]; Day 41, Ex. 3 200 mg/kg) was 184 mm^3. It also gave a Mean tumor volume ([2]; Day 44, Ex. 3 60 mg/kg) of 485 mm^3, a Mean tumor volume ([2]; Day 44, Ex. 3 200 mg/kg) of 242 mm^3 and a Mean tumor volume ([2]; Day 49, Ex. 3 60 mg/kg) of 554 mm^3. It also gave a Mean tumor volume ([2]; Day 49, Ex. 3 200 mg/kg) of 288 mm^3, a Mean tumor volume ([2]; Day 52, Ex. 3 60 mg/kg) of 633 mm^3 and a Mean tumor volume ([2]; Day 52, Ex. 3 200 mg/kg) of 270 mm^3. It also gave a Mean tumor volume ([2]; Day 55, Ex. 3 60 mg/kg) of 763 mm^3, a Mean tumor volume ([2]; Day 55, Ex. 3 200 mg/kg) of 219 mm^3 and a Mean tumor volume ([2]; Day 57, Ex. 3 60 mg/kg) of 878 mm^3. The Mean tumor volume ([2]; Day 57, Ex. 3 200 mg/kg) was 214 mm^3, the “percent inhibition of tumor growth” value [2, 7] was 21% and the “percent inhibition of tumor growth” value ([2]; Exp. 1, Example 3 200 mg/kg P.O. once daily) was 99* %. The “percent inhibition of tumor growth” value ([2]; Exp. 2, Example 3 60 mg/kg P.O. once daily) was 58* %, the “percent inhibition of tumor growth” value ([2]; Exp. 2, Example 3 200 mg/kg P.O. once daily) was 85* % and the tumor growth inhibition [2] was 21-99%.
